Source: ChEMBL document CHEMBL4507268 (2021)

Experiments:
Settings in all cases: Compound concentration 1.0 uM
[1] = target: Serine/threonine-protein kinase 32A (Homo sapiens) (UniProt Q8WU08)
[2] = target: Serine/threonine-protein kinase PLK3 (Homo sapiens) (UniProt Q9H4B4)
[3] = target: T1, Serine/threonine-protein kinase haspin (Homo sapiens) (UniProt Q8TF76)
T1 sequence (whole entry): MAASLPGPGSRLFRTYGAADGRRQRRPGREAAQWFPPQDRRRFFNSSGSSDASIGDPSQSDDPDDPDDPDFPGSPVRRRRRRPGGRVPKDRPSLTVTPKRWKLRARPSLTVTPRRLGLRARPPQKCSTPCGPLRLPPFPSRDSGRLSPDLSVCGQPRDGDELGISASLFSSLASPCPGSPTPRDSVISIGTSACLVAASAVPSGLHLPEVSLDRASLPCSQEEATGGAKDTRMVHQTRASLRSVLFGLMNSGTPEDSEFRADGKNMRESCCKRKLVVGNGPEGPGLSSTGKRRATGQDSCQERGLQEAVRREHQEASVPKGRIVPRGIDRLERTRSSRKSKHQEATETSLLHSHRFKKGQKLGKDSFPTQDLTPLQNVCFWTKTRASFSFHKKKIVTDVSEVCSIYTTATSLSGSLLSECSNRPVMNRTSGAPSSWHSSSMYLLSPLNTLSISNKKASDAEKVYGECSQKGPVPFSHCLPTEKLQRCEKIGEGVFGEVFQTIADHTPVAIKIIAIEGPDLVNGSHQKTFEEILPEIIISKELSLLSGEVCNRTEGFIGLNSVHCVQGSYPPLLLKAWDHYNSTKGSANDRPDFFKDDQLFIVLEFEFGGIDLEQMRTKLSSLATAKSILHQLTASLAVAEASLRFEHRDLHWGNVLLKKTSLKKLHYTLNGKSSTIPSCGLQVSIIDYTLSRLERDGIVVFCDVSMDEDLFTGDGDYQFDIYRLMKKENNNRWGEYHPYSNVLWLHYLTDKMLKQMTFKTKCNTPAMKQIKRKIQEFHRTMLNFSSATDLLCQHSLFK

[4] = target: Dual specificity mitogen-activated protein kinase kinase 1 (Homo sapiens) (UniProt Q02750)

Measured: % residual kinase activity

Sequence of Serine/threonine-protein kinase PLK3 (Homo sapiens) (Q9H4B4 whole entry, looked up): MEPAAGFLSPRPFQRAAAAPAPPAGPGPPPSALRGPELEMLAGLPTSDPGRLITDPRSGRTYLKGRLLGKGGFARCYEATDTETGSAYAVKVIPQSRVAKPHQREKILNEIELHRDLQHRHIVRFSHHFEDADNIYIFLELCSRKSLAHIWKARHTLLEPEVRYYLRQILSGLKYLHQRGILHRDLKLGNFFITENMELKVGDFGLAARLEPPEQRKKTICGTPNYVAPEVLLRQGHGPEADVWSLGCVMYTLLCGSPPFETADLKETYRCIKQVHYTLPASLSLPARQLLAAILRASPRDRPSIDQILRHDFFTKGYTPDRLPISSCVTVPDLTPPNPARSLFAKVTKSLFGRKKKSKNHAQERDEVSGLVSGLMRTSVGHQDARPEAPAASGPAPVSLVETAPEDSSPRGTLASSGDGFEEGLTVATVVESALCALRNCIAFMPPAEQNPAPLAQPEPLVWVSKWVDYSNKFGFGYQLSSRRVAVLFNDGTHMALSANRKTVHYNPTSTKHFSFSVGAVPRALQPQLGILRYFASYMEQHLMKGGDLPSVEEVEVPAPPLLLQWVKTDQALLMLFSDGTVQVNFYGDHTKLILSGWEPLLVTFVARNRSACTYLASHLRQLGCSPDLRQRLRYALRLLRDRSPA
Sequence of Serine/threonine-protein kinase 32A (Homo sapiens) (Q8WU08 whole entry): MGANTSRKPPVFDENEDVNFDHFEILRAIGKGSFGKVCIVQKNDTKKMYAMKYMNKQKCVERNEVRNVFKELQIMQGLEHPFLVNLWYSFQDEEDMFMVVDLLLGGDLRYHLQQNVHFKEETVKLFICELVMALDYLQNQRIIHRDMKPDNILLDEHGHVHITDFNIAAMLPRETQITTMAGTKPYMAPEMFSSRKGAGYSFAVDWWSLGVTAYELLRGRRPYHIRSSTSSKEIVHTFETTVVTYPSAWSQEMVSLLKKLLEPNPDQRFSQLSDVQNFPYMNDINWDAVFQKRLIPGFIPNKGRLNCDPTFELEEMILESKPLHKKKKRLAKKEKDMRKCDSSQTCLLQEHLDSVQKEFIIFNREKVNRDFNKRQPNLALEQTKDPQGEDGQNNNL
Sequence of Dual specificity mitogen-activated protein kinase kinase 1 (Homo sapiens) (Q02750 whole entry): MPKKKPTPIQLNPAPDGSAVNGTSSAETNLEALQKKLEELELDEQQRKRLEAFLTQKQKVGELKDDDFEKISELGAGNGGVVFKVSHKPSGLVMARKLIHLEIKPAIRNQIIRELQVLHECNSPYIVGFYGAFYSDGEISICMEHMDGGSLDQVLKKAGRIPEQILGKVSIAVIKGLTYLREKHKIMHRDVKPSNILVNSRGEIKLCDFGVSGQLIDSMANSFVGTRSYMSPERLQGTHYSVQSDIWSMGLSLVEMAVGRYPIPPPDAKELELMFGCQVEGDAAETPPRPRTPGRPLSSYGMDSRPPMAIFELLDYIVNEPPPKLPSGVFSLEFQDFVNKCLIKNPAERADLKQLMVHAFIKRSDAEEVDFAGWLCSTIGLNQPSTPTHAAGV

CN1CCN(c2cnc3c(C4CCN(C(=O)c5ccc(OC(F)(F)F)cc5N)CC4)ncnc3c2)CC1 [BAY-885]
inactive: [1] 100% | [2] 107% | [3] 105% | [4] 115%
